From patent publication US20260001875A1, “AMINOPYRIMIDINYL DERIVATIVES FOR THE TREATMENT OF PARKINSON'S DISEASE” (UNIVERSITY OF DUNDEE, priority 2022, published 2026) come the findings set out here.

SMILES strings stand for the structures. Entries after “also recorded” stand apart in the source; their conditions may differ.

The test system of experiment [1] is Rab10 pThr73. Nature of the experiment: Rab10 Thr73 dephosphorylation in PBMC. The format is cell-based, human. The following applies: for EC50: Homo sapiens, PBMC. As for the experimental part: PBMC cells were separated from human blood following existing protocol (dx.doi.org/10.17504/protocols.io.bnhxmb7n) and pelleted by centrifugation at 1000 g for 2 min. The supernatant was discarded and the PBMC pellet was resuspended in PBS containing 2% FBS for washing. The suspension was centrifuged at 1000 g for 2 min again and the PBMC pellet was resuspended in RPMI-1640 (Gibco) media supplemented with 10% FBS. The cells were then seeded into 6-well plates and treated with testing compounds at indicated concentrations and time period. After treatment, the cells were collected into 2-ml Eppendorf tube and centrifuged at 500 g for 2 min to pellet the cells, the supernatant was discarded, and the pellet was resuspended in 1 ml PBS and centrifuged at 500 g for 2 min again. The PBMC pellet was lysed with 60 μL of lysis buffer containing 50 mM Tris-HCl, pH 7.5, 1% (v/v) Triton X-100, 1 mM EGTA, 1 mM sodium orthovanadate, 50 mM NaF, 0.1% (v/v) 2-mercaptoethanol, 10 mM 2-glycerophosphate, 5 mM sodium pyrophosphate, 0.1 μg/ml mycrocystin-LR (Enzo Life Sciences), 270 mM sucrose, 0.5 mM DIFP (Sigma, Cat #D0879) in addition to Complete EDTA-free protease inhibitor cocktail (Sigma-Aldrich Cat #11836170001). DIFP is highly toxic and must be prepared in a fume hood to a stock solution of 0.5 M in isopropanol. The lysed cells were then centrifuged at 1500 g for 15 min at 0° C. The supernatants were collected for analysis by quantitative immunoblotting. For long term storage, the supernatant was flash frozen and stored at −80° C. Protein concentrations of cell lysates were determined using Pierce™ BCA Protein Assay Kit (ThermoFisher).
Cell lysates containing a quarter of a volume of 4× NuPAGE LDS sample buffer (NP0007) supplemented with 5% β-mercaptoethanol, were heated at 95° C. for 5 minutes. 15 to 20 μg of samples were loaded onto pre-cast 4-12% Bis-Tris midi 20W or 26W gels (Thermofisher Scientific®, Cat #WG1402BOX or WG1403BOX) and resolved at 130 V for 2 hours with NuPAGE MOPS SDS running buffer (Thermofisher Scientific® Cat #NP0001-02). Proteins were electrophoretically transferred onto a 0.45 μm nitrocellulose membrane (GE Healthcare, Amersham Protran® Supported 0.45 mm NC) at 90 V for 90 min on ice in transfer buffer (48 mM Tris base and 39 mM glycine supplemented with 20% methanol). The transferred membrane was blocked with 5% (w/v) skim milk powder dissolved in tris-buffered saline with tween (TBS-T) (50 mM Tris base, 150 mM sodium chloride (NaCl), 0.1% (v/v) Tween-20) at room temperature for 1 hour. Membranes were washed three times with TBS-T and were incubated in primary antibody overnight at 4° C. Prior to secondary antibody incubation, membranes were washed three times for 15 minutes with TBS-T. The membranes were incubated with secondary antibody for 1 hour at room temperature, protected from light. Thereafter, the membranes were washed with TBS-T three times with a 15-minute incubation for each wash, and protein bands were acquired via near-infrared fluorescent detection using the Odyssey CLx imaging system and quantified using Image Studio software. Graphs were generated using Graphpad Prism version 8 software.
Monoclonal rabbit LRRK2 Ser935 (Cat #UDD2) was purified by MRC PPU Reagents and Services at the University of Dundee and was used at a final concentration of 1 μg/ml. Total LRRK2 (C-terminus) was from Antibodies Inc./Neuromab (Cat #75-253) and was diluted 1:1000. […]

Experiment [2] has as its target T1, VHL and LRRK2 (Homo sapiens, UniProt P40337+Q5S007).
T1 construct: host or cells: HEK293 (digitonin-permeabilized), with purified labelled VCB added
Nature of the experiment: NanoBRET ternary complex formation assay. It is filed as binding. How it is done:
VCB was labeled with Bodipy 576/589 following protocol reported previously 76. Briefly, the VCB complex was mixed with Bodipy 576/589 NHS ester in a 20:1 molar ration and incubated at room temperature (protect from light) for 2 h in reaction buffer (0.1 M sodium phosphate, 75 mM KOAc, 2 mM DTT, pH 7.4). The reaction was quenched by diluting 10 times with reaction buffer and the unreacted dye was removed with a PD-10 MiniTrap desalting column (GE Healthcare) equilibrated with 100 mM BisTris pH 7.0, 100 mM NaCl, 1 mM DTT, pH 7. The eluted labeled protein solution was collected and concentrated with Pierce Concentrator, 3K MWCO (Thermo scientific).
Hek293 cells were transfected with LRRK2-NanoLuc vector (Promega, NV3401) for 24 h, harvested, and resuspended into OptiMEM media without phenol red (Life Technologies). The cells were then seeded into white 384-well plate (Corning3570) at a density of 6000 cells/well. […] Each well was added with NanoBRET NanoGlo Substrate (Promega, N2160) before performing the NanoBRET reading on PHERAstar (BMG LABTECH) plate reader equipped with a 450-nm bandpass filter (donor) and a 600-nm long pass filter (acceptor). […]
(In BRET a luciferase serves as donor, and the signal depends on an acceptor being close.)

T1 sequence (Q5S007 whole entry, species assumed): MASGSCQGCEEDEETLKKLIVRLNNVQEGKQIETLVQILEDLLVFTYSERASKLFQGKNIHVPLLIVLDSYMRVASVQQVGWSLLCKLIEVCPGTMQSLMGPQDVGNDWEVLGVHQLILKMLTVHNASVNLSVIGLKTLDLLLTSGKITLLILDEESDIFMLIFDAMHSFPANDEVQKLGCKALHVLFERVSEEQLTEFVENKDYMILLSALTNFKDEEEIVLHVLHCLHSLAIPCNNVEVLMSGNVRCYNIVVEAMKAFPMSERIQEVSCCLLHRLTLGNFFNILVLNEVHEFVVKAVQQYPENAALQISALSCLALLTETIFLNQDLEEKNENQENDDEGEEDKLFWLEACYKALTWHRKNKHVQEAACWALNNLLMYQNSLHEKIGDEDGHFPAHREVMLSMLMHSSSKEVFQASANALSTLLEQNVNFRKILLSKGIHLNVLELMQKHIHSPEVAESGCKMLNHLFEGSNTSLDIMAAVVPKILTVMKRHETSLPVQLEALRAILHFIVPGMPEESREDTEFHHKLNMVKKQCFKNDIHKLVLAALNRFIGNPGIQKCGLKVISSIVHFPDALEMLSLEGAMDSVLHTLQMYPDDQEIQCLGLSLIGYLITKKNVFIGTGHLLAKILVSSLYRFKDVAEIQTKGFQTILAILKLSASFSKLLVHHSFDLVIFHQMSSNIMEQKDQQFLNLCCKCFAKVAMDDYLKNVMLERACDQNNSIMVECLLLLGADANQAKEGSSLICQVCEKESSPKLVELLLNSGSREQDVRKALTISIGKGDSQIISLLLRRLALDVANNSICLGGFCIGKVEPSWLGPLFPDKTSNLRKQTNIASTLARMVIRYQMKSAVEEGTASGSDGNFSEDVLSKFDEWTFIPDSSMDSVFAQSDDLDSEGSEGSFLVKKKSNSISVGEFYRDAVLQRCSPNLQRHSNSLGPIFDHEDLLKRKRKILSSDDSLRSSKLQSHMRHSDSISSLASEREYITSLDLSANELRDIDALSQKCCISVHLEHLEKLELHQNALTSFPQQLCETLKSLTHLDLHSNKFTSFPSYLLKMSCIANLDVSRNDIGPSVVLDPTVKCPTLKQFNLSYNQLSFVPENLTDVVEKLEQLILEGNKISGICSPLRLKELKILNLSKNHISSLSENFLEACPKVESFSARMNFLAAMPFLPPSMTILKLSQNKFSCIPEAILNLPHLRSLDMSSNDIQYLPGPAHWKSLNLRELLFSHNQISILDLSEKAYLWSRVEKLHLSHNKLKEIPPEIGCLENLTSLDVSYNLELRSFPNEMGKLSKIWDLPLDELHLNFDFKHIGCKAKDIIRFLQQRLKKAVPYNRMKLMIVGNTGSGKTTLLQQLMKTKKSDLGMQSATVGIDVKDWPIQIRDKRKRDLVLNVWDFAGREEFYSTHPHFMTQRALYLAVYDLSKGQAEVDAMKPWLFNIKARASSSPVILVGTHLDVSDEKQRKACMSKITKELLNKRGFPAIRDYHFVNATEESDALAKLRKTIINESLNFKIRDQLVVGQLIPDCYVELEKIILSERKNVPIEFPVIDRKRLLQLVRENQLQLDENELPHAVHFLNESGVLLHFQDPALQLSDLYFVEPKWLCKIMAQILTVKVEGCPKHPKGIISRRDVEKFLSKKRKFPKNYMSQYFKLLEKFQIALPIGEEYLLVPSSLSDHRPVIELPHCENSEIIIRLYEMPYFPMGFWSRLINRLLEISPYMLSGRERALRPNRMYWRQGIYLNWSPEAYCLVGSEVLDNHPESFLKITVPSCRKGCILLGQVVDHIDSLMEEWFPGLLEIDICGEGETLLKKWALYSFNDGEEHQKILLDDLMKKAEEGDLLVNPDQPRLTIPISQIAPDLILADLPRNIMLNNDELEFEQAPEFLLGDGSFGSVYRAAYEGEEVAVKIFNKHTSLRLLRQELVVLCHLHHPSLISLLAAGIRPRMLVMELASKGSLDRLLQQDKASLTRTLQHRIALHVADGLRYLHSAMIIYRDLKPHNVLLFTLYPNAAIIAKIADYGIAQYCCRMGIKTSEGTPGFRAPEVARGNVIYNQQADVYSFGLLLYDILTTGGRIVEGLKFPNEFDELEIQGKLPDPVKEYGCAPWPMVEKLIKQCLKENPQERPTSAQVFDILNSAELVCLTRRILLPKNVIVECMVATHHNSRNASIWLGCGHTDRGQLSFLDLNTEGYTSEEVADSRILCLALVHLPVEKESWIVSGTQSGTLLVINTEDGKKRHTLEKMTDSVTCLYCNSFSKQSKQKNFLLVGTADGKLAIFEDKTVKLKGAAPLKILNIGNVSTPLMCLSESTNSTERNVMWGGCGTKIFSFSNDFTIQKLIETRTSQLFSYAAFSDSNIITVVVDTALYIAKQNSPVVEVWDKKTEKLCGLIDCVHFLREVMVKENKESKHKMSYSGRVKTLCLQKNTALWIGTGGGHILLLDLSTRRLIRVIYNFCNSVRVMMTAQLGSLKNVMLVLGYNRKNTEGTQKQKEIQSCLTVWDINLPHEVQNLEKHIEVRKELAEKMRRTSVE
T1 sequence (P40337 54-213 limits assumed, species assumed): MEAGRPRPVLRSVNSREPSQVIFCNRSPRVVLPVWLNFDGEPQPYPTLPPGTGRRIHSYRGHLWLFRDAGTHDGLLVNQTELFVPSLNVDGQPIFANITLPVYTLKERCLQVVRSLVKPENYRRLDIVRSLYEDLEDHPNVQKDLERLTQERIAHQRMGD
T1 sequence (Q15369 17-112 partner limits assumed, species assumed): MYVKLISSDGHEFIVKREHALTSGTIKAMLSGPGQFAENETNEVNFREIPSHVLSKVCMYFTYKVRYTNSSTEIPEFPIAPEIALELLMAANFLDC
T1 sequence (Q15370 1-104 partner limits assumed, species assumed): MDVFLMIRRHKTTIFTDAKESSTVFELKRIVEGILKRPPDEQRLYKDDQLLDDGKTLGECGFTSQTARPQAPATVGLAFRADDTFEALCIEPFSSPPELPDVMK

In general, EC50 refers to the concentration needed to bring the measured effect to its halfway point. Low readings indicate greater potency, high ones weaker potency. For the compound `CNc1nc(Nc2ccc(C(=O)N3CCN(C[C@H]4CC[C@H](CSC(C)(C)[C@H](NC(=O)C5(F)CC5)C(=O)N5C[C@@H](O)CC5C(=O)NCc5ccc(-c6scnc6C)cc5)CC4)CC3)cc2OC)ncc1Cl` (stereo partly drawn) [Cis-XL01126, (2S,4S)-1-((R)-3-((((1r,4R)-4-((4-(4-((5-chloro-4-(methylamino)pyrimidin-2-yl)amino)-3-methoxybenzoyl)piperazin-1-yl)methyl)cyclohexyl)methyl)thio)-2-(1-fluorocyclopropane-1-carboxamido)-3-methylbutanoyl)-4-hydroxy-N-(4-(4-methylthiazol-5-yl)benzyl)pyrrolidine-2-carboxamide], the EC50 was more than 3000 nM in experiment [1] (4 h treatment) and 705 nM in experiment [1] (24 h treatment). Also, the “LRRK2 Ser935 and Rab10 Thr73 dephosphorylation in PBMC (in words)” value in experiment [1] (time course at 300 nM) is “barely inhibits the phosphorylation; also recorded: induced little LRRK2 and Rab10 dephosphorylation”. The “ternary complex formation with VHL and LRRK2 (in words)” value in experiment [2] is given as “cannot form ternary complex”.

The compound `CNc1nc(Nc2ccc(C(=O)N3CCN(C[C@H]4CC[C@H](CSC(C)(C)[C@H](NC(=O)C5(F)CC5)C(=O)N5C[C@H](O)CC5C(=O)NCc5ccc(-c6scnc6C)cc5)CC4)CC3)cc2OC)ncc1Cl` (stereo partly drawn) [XL01126, (2S,4R)-1-((R)-3-((((1R,4R)-4-((4-(4-((5-chloro-4-(methylamino)pyrimidin-2-yl)amino)-3-methoxybenzoyl)piperazin-1-yl)methyl)cyclohexyl)methyl)thio)-2-(1-fluorocyclopropane-1-carboxamido)-3-methylbutanoyl)-4-hydroxy-N-(4-(4-methylthiazol-5-yl)benzyl)pyrrolidine-2-carboxamide] returned an EC50 in experiment [1] (24 h treatment) of 20 nM. The “T1/2 of Rab10 dephosphorylation in PBMC” value in experiment [1] (time course at 300 nM) was found to be 22.8 min. Also, in experiment [2], the “ternary complex formation with VHL and LRRK2 (in words)” value was “highest ternary complex”.
